Laboratory results as given in ChEMBL document CHEMBL1821612, “Discovery of novel antitubercular 3a,4-dihydro-3H-indeno[1,2-c]pyrazole-2-carboxamide/carbothioamide analogues” (Bioorg Med Chem Lett, 2011).
≈ marks a conversion by molar mass, not a printed value.

Tests used:
[1] = test system: Mycobacterium tuberculosis; assay: Antimycobacterial activity against Mycobacterium tuberculosis H37Rv after 2 weeks by BACTEC 460 radiometric method; type: functional; details: 336 h
Vero = assay: Cytotoxicity against african green monkey Vero cells up to 62.5 ug/mL after 72 hrs by MTT assay; type: cell-based; details: chlorocebus sabaeus

| Compound | MIC [1] | Activity (Vero) |
| --- | --- | --- |
| COc1cc2c(cc1OC)C1=NN(C(=O)Nc3c(C)cccc3C)C(c3ccccc3Cl)C1C2 (stereo unspecified) | 6.25 µM (≈ 2.97 µg/mL) | – |
| COc1ccc(C2C3Cc4cc(OC)c(OC)cc4C3=NN2C(=O)Nc2c(C)cccc2C)cc1 (stereo unspecified) | > 12.5 µM | – |
| COc1ccc(C2C3Cc4cc(OC)c(OC)cc4C3=NN2C(=O)Nc2ccc(C)cc2C)cc1 (stereo unspecified) | > 12.5 µM | – |
| COc1ccc(C2C3Cc4cc(OC)c(OC)cc4C3=NN2C(N)=S)cc1 (stereo unspecified) | 12.5 µM (≈ 4.79 µg/mL) | – |
| COc1cc2c(cc1OC)C1=NN(C(N)=S)C(c3ccccc3)C1C2 (stereo unspecified) | 12.5 µM (≈ 4.42 µg/mL) | – |
| COc1ccc(C2C3Cc4cc(OC)c(OC)cc4C3=NN2C(=O)Nc2c(C)cccc2C)cc1OC (stereo unspecified) | 12.5 µM (≈ 6.27 µg/mL) | – |
| COc1cc2c(cc1OC)C1=NN(C(=O)Nc3ccc(C)cc3C)C(c3ccccc3Cl)C1C2 (stereo unspecified) | 6.25 µM (≈ 2.97 µg/mL) | – |
| COc1cc2c(cc1OC)C1=NN(C(N)=S)C(c3ccc(F)cc3)C1C2 (stereo unspecified) | 3.12 µM (≈ 1.16 µg/mL) | Non-toxic |
| COc1cc2c(cc1OC)C1=NN(C(=O)Nc3ccc(C)cc3C)C(c3ccccc3)C1C2 (stereo unspecified) | > 12.5 µM | – |
| COc1cc2c(cc1OC)C1=NN(C(=O)Nc3c(C)cccc3C)C(c3ccncc3)C1C2 (stereo unspecified) | > 10 µM | – |
| COc1cc2c(cc1OC)C1=NN(C(N)=S)C(c3ccccc3Cl)C1C2 (stereo unspecified) | 6.25 µM (≈ 2.42 µg/mL) | – |
| NNC(=O)c1ccncc1 [ISONIAZID] | 0.78 µM (≈ 0.107 µg/mL) | – |
| COc1cc2c(cc1OC)C1=NN(C(=O)Nc3ccc(C)cc3C)C(c3ccncc3)C1C2 (stereo unspecified) | 10 µM (≈ 4.43 µg/mL) | – |
| COc1ccc(C2C3Cc4cc(OC)c(OC)cc4C3=NN2C(=O)Nc2ccc(C)cc2C)cc1OC (stereo unspecified) | 12.5 µM (≈ 6.27 µg/mL) | – |
| COc1cc2c(cc1OC)C1=NN(C(=O)Nc3c(C)cccc3C)C(c3ccccc3)C1C2 (stereo unspecified) | 12.5 µM (≈ 5.52 µg/mL) | – |
| CO[C@H]1/C=C/O[C@@]2(C)Oc3c(C)c(O)c4c(O)c(c(/C=N/N5CCN(C)CC5)c(O)c4c3C2=O)NC(=O)/C(C)=C\C=C\[C@H](C)[C@H](O)[C@@H](C)[C@@H](O)[C@@H](C)[C@H](OC(C)=O)[C@@H]1C [RIFAMPIN] | 0.006 µM (≈ 0.00494 µg/mL) | – |
| COc1ccc(C2C3Cc4cc(OC)c(OC)cc4C3=NN2C(N)=S)cc1OC (stereo unspecified) | 12.5 µM (≈ 5.17 µg/mL) | – |
| COc1cc2c(cc1OC)C1=NN(C(=O)Nc3ccc(C)cc3C)C(c3ccc(F)cc3)C1C2 (stereo unspecified) | 6.25 µM (≈ 2.87 µg/mL) | – |
| COc1cc2c(cc1OC)C1=NN(C(=O)Nc3c(C)cccc3C)C(c3ccc(F)cc3)C1C2 (stereo unspecified) | 6.25 µM (≈ 2.87 µg/mL) | – |
| COc1cc2c(cc1OC)C1=NN(C(N)=S)C(c3ccncc3)C1C2 (stereo unspecified) | 6.25 µM (≈ 2.22 µg/mL) | – |
